Source: ChEMBL document CHEMBL1667845, “LC-MS and NMR characterization of the purple chromophore formed in the o-aminobenzaldehyde assay of dihydrodipicolinate synthase” (Bioorg Med Chem, 2011)
Calls of active or inactive are those of the source. No cut-off for these calls is given here.

How the values were obtained:
Escherichia coli [1] = test: Binding affinity to Escherichia coli DHDPS assessed as formation of purple chromophore after 30 to 60 mins by o-aminobenzaldehyde assay using UV-vis spectrophotometric analysis using LC-MS analysis
Escherichia coli [2] = test: Binding affinity to Escherichia coli DHDPS assessed as formation of purple chromophore after 10 to 40 mins by o-aminobenzaldehyde assay
Escherichia coli [3] = test: Binding affinity to Escherichia coli DHDPS assessed as formation of purple chromophore after 70 mins by o-aminobenzaldehyde assay using UV-vis spectrophotometric analysis using UV-vis spectrophotometric analysis

Activity (Escherichia coli [1]): Active | Activity (Escherichia coli [2]): Active | Activity (Escherichia coli [3]): Active
Compound: O=C(O)C1=N[C@H](C(=O)O)C[C@H](O)C1
